From patent US20120065257A1, “USE OF BENZO-FUSED HETEROCYLE SULFAMIDE DERIVATIVES FOR THE TREATMENT OF MIGRAINE” (priority 2006, published 2012)

How the values were obtained:
[1] = tested on: KCl-induced cortical spreading depression; conditions: historical positive control, 200 mg/kg/day i.p. for 4 weeks; saline 18; p<0.05; cited from earlier work
[2] = tested on: KCl-induced cortical spreading depression; assay: KCl-induced cortical spreading depression (CSD) assay as model of migraine; format: in vivo, Sprague-Dawley rats; conditions: 100 mg/kg/day p.o. for 35 days
Method: Cortical spreading depression (CSD) has been implicated in migraine and as a headache trigger, and can be evoked in experimental animals by electrical or chemical stimulation (Kunkler & Kraig, 2003; Lauritzen et al., 1982; Moskowitz, 1984).
Adult male Sprague-Dawley rats (250-600 g) were divided into two treatment groups: vehicle (0.5% methylcellulose; n=13) and Compound #8 (100 mg/kg/day, p.o.; n=7). Results were compared to historical positive controls with valproic acid at 200 mg/kg/day, i.p.
Vehicle or Compound #8 was administered orally once a day for 35 days. On the last day of treatment, rats continued to receive food and water ad libitum, and were given their daily oral dose of vehicle or Compound #8 approximately 1.5 h prior to CSD testing. Rats were anesthetized using isoflurane and intubated via a tracheotomy for mechanical ventilation. Body temperature, blood pressure and heart rate were monitored throughout the procedure to ensure homeostasis. […] The steady (DC) potential and electrocorticogram (EcoG) were recorded with glass micropipettes filled with 200 mM NaCl, […] below the dural surface. […] The number of KCL-induced CSDs was counted for 2 hours. Propagation speed was calculated from the distance (mm) between the recording electrodes 1 and 2, divided by the latency (min) between the CSDs recorded at these sites. […]

[3] = Body weight and systemic physiology monitoring during CSD testing; format: in vivo, Sprague-Dawley rats; conditions: 100 mg/kg/day p.o. for 35 days
Method: Vehicle or Compound #8 was administered orally once a day for 35 days. On the last day of treatment, rats continued to receive food and water ad libitum, and were given their daily oral dose of vehicle or Compound #8 approximately 1.5 h prior to CSD testing. Rats were anesthetized using isoflurane and intubated via a tracheotomy for mechanical ventilation. Body temperature, blood pressure and heart rate were monitored throughout the procedure to ensure homeostasis. Rats were placed in a stereotaxic frame and three burr holes were drilled under saline cooling over the right hemisphere at the following coordinates (mm from bregma): (1) posterior 4.5, lateral 2.0 (occipital cortex): KCL application; (2) posterior 0.5, lateral 2.0 (parietal cortex): recording site 1; (3) anterior 2, lateral 2 (frontal cortex): recording site 2. Dura overlying the occipital cortex was gently removed. The steady (DC) potential and electrocorticogram (EcoG) were recorded with glass micropipettes filled with 200 mM NaCl, […] below the dural surface. An Ag/AgCl reference electrode was placed subcutaneously in the neck. Following surgical preparation, the cortex was allowed to recover for 30 minutes under saline irrigation. Cortical spreading depressions were initiated by placing a cotton ball soaked with 1M KCl on the pial surface. The number of KCL-induced CSDs was counted for 2 hours. Propagation speed was calculated from the distance (mm) between the recording electrodes 1 and 2, divided by the latency (min) between the CSDs recorded at these sites.

## NS(=O)(=O)NCC1CCc2ccccc2O1 (centres unmarked) [Compound #10, Chroman-2-ylmethylsulfamide]
other
  melting point: 100 to 101 °C

## NS(=O)(=O)NC[C@H]1COc2cc(Cl)c(Cl)cc2O1 [Compound #29, (2S)-(−)-N-(6,7 Dichloro-2,3-dihydro-benzo[1,4]dioxin-2-ylmethyl)-sulfamide]
other
  melting point: 119 to 121 °C

## CCCC(CCC)C(=O)O [valproate, valproic acid]
[1]
  number of cortical spreading depressions: 14

## CN(CC1COc2ccccc2O1)S(N)(=O)=O (racemic) [Compound #7, N-(2,3-Dihydro-benzo[1,4]dioxin-2-ylmethyl)-N-methylsulfamide]
other
  melting point: 97 to 98 °C

## NS(=O)(=O)NCCC1COc2ccccc2O1 (centres unmarked) [Compound #16, 2-(2,3-Dihydro-benzo[1,4]dioxin-2-yl)-ethylsulfamide]
other
  melting point: 101 to 103 °C

## CN(C)S(=O)(=O)NCC1COc2ccccc2O1 (racemic) [Compound #6, N-(2,3-Dihydro-benzo[1,4]dioxin-2-ylmethyl)-N′,N′ dimethylsulfamide]
other
  melting point: 76 to 78 °C

## NS(=O)(=O)NC[C@H]1COc2cc(Cl)ccc2O1 [Compound #8, (2S)-(−)-N-(6-Chloro-2,3-dihydro-benzo[1,4]dioxin-2-ylmethyl)-sulfamide]
[2]; 1M KCl topical, counted for 2 hours, vehicle 16 ± 3, p=0.12, not significant
  CSDs (2 h) ≧ 5 mV (number of KCl-induced cortical spreading depressions): 14±3
[2]; vehicle 3.2 ± 1, p=0.06
  Propagation Speed: 2.7±0.4 mm/min
[3]
  Physiological monitoring, including arterial pH, pCO2, pO2 and blood pressure, versus vehicle: did not differ between the groups
[3]; vehicle 7.44 ± 0
  Systemic Physiology: pH (arterial): 7.42 ± 0.03
[3]; vehicle 38 ± 3, in mmHg (unit assumed)
  Systemic Physiology: pCO2: 39 ± 3
[3]; vehicle 105 ± 14, in mmHg (unit assumed)
  Systemic Physiology: BP: 107 ± 18
[3]; vehicle 162 ± 9, in mmHg (unit assumed)
  Systemic Physiology: pO2: 157 ± 18
[3]; vehicle 401 ± 40
  Body weight: 418 ± 31 g
